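Values below derive from 48-hour exposures of cells grown in 96-well plates, with endpoints linearly interpolated between the two concentrations bracketing the appropriate inhibition level. GI50 is the concentration that inhibits growth by half.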 The source made the active and inactive calls. No stated cut-off is given here; in the data, active = GI50 up to about 1.1 µM and inactive = higher.
What was measured:
Test in all cases: inhibition of tumour cell growth, NCI panel, 48 h
NCI-H23 = tested on: NCI-H23
NCI-H522 = tested on: NCI-H522
SK-MEL-5 = tested on: SK-MEL-5
HCT-15 = tested on: HCT-15
SF-295 = tested on: SF-295
HT-29 = tested on: HT-29
HCT-116 = tested on: HCT-116
SK-MEL-2 = tested on: SK-MEL-2
786-0 = tested on: 786-0
IGROV-1 = tested on: IGROV-1
NCI-H226 = tested on: NCI-H226
SK-MEL-28 = tested on: SK-MEL-28
A498 = tested on: A498
UACC-257 = tested on: UACC-257
OVCAR-3 = tested on: OVCAR-3
TK-10 = tested on: TK-10
SR = tested on: SR
HL-60 = tested on: HL-60

| SMILES | GI50 (NCI-H23) | GI50 (NCI-H522) | GI50 (SK-MEL-5) | GI50 (HCT-15) [µM] | GI50 (SF-295) | GI50 (HT-29) | GI50 (HCT-116) | GI50 (SK-MEL-2) | GI50 (786-0) | GI50 (IGROV-1) | GI50 (NCI-H226) | GI50 (SK-MEL-28) | GI50 (A498) | GI50 (UACC-257) | GI50 (OVCAR-3) | GI50 (TK-10) | GI50 (SR) | GI50 (HL-60) |
| --- | --- | --- | --- | --- | --- | --- | --- | --- | --- | --- | --- | --- | --- | --- | --- | --- | --- | --- |
| CC(=O)OCC1OC(n2c(=S)n(-c3ccccc3)c(=O)c3cc(Br)ccc32)C(OC(C)=O)C1OC(C)=O (centres undefined) | > 100 µM (inactive) | > 100 µM (inactive) | > 100 µM (inactive) | > 100 | > 100 µM (inactive) | > 100 µM (inactive) | > 100 µM (inactive) | > 100 µM (inactive) | > 100 µM (inactive) | > 100 µM (inactive) | > 100 µM (inactive) | > 100 µM (inactive) | > 100 µM (inactive) | > 100 µM (inactive) | > 100 µM (inactive) | – | – | – |
| COc1cc2ccc(/C(C)=N/OC(C)=O)cc2cc1OC | > 100 µM (inactive) | 22.4 µM (inactive) | – | > 100 | 49.9 µM (inactive) | 64.3 µM (inactive) | > 100 µM (inactive) | 81.3 µM (inactive) | > 100 µM (inactive) | > 100 µM (inactive) | 53.6 µM (inactive) | > 100 µM (inactive) | 22.8 µM (inactive) | > 100 µM (inactive) | 34.1 µM (inactive) | 44.8 µM (inactive) | – | – |
| C=CCC1C(=O)C(C(=O)OC)N2CCc3c([nH]c4ccccc34)C12 (centres undefined) | > 100 µM (inactive) | 80 µM (inactive) | > 100 µM (inactive) | > 100 | > 100 µM (inactive) | > 100 µM (inactive) | > 100 µM (inactive) | > 100 µM (inactive) | > 100 µM (inactive) | > 100 µM (inactive) | – | > 100 µM (inactive) | > 100 µM (inactive) | – | > 100 µM (inactive) | > 100 µM (inactive) | 61.1 µM (inactive) | > 100 µM (inactive) |
| O=C1C2=C(c3ccccc31)C(c1ccccc1Cl)N1C(=O)CSC1=N2 (centres undefined) | 85.7 µM (inactive) | 23.8 µM (inactive) | > 100 µM (inactive) | 83.4 | 83.4 µM (inactive) | > 100 µM (inactive) | 87.3 µM (inactive) | > 100 µM (inactive) | > 100 µM (inactive) | > 100 µM (inactive) | > 100 µM (inactive) | 49.3 µM (inactive) | > 100 µM (inactive) | > 100 µM (inactive) | 87.3 µM (inactive) | > 100 µM (inactive) | – | 45.6 µM (inactive) |
| CC(=O)Oc1c(-c2ccccc2)[nH]c2cc([N+](=O)[O-])c(/C(Cl)=C/c3ccccc3)cc12 | 2.47 µM (inactive) | 4.86 µM (inactive) | 1.89 µM (inactive) | – | 4.08 µM (inactive) | 3.2 µM (inactive) | 3.91 µM (inactive) | 9.57 µM (inactive) | 11.2 µM (inactive) | 9.46 µM (inactive) | 4 µM (inactive) | 6.37 µM (inactive) | 2.88 µM (inactive) | 5.77 µM (inactive) | 7.66 µM (inactive) | 19.8 µM (inactive) | 3.57 µM (inactive) | 2.84 µM (inactive) |
| Nc1nc(N)c(CCCCc2ccccc2)c(/C=C/c2ccc([N+](=O)[O-])cc2)n1 | 3.86 µM (inactive) | 2.24 µM (inactive) | 2.18 µM (inactive) | 1.25 | 1.42 µM (inactive) | 0.925 µM (active) | 1.16 µM (inactive) | 2.79 µM (inactive) | 0.785 µM (active) | 2.8 µM (inactive) | 26.1 µM (inactive) | 3.33 µM (inactive) | – | 2.51 µM (inactive) | 2.43 µM (inactive) | 1.8 µM (inactive) | 1.56 µM (inactive) | 1.35 µM (inactive) |
| O=C(O)CCN(CCCCN(CCC(=O)O)CCC(=O)O)CCC(=O)O | > 100 µM (inactive) | > 100 µM (inactive) | > 100 µM (inactive) | > 100 | > 100 µM (inactive) | > 100 µM (inactive) | > 100 µM (inactive) | > 100 µM (inactive) | > 100 µM (inactive) | > 100 µM (inactive) | – | > 100 µM (inactive) | > 100 µM (inactive) | – | > 100 µM (inactive) | > 100 µM (inactive) | – | > 100 µM (inactive) |
| O=C1OC(c2ccccc2)(c2ccccc2)CC1CN1CCOCC1 (centres undefined) | 20.6 µM (inactive) | 10.2 µM (inactive) | 29.3 µM (inactive) | 16.1 | – | 1.95 µM (inactive) | 12.8 µM (inactive) | 17.9 µM (inactive) | 16.7 µM (inactive) | > 100 µM (inactive) | – | 18.1 µM (inactive) | > 100 µM (inactive) | 5.98 µM (inactive) | 15.6 µM (inactive) | 14.2 µM (inactive) | 3.08 µM (inactive) | 6.61 µM (inactive) |
| CC1=C2CC[C@@]3(C)C(=CCC3O)C2(C)CCC1=O (some centres undefined) | – | > 100 µM (inactive) | > 100 µM (inactive) | > 100 | > 100 µM (inactive) | > 100 µM (inactive) | > 100 µM (inactive) | – | > 100 µM (inactive) | > 100 µM (inactive) | > 100 µM (inactive) | > 100 µM (inactive) | 91.6 µM (inactive) | > 100 µM (inactive) | > 100 µM (inactive) | > 100 µM (inactive) | > 100 µM (inactive) | > 100 µM (inactive) |

Reference: ChEMBL document CHEMBL1201862, “PubChem BioAssay data set” (2004)
